# Reference: patent US20250195502A1, “APPLICATION OF TETRACYCLIC COMPOUND IN TREATMENT OF TUMORS” (SHANGHAI SHIJIANG BIOTECHNOLOGY CO., LTD, priority 2022, published 2025)
# pIC50: −log10 of the molar value. Where two headings read alike, the source gives them in different places.
# Columns and labels:
# Assay type in all cases: cell-based
# [1] = tested on: MDA-MB-453 (breast cancer cell); assay: Cell viability assay (Promega CellTiter-Glo), inhibitory effect on MDA-MB-453; conditions: Homo sapiens, 72 h, 3 days of culture
# Procedure: (§1) The inhibitory effect of the compounds prepared in the Examples of the present invention on various tumor cell lines was detected using cell viability assay reagent.
# (§2) Cell viability was detected using the Promega CellTiter-Glo kit, cell viability was determined by directly measuring intracellular ATP content. In the experiment, the ICso value of the compounds prepared in the Examples of the present invention on various tumor cell lines was detected.
# (§3) Each tumor cell was cultured in relevant medium. After cell passage, the gradient diluted compounds prepared in the Examples of the present invention was added. After 3 days of culture, the relevant IC50 (50% inhibiting concentration) was measured. The name, source and culture conditions of each tumor cell line were as follows:
# Cell line MDA-MB-453 (ATCC, No. HTB-131) was cultured in 10% fetal bovine serum-containing Leibovitz's L-15 medium (+P/S).
# [2] = tested on: NCI-H82 (human small cell lung cancer cell); assay: Cell viability assay (Promega CellTiter-Glo), inhibitory effect on NCI-H82; conditions: 72 h, 3 days of culture
# Procedure: as §1, §2, §3
# Cell line NCI-H82 (ATCC, No. HTB-175) was cultured in 10% fetal bovine serum-containing RPMI1640 medium (+P/S).
# [3] = tested on: sh-DNMT1 NCI-H82 cell (DNMT1 knocked down NCI-H82); assay: Cell viability assay (Promega CellTiter-Glo), inhibitory effect on sh-DNMT1 NCI-H82 cell; conditions: Homo sapiens, NCI-H82 with DNMT1 knocked down by shRNA
# Procedure: (§4) The role of expression level of NNMT gene and DNMT1 in the sensitivity of NCI-H82 cell to the compounds prepared in the Examples of the present invention was determined
# (§5) The expression of NNMT protein in NCI-H82 cell was overexpressed by inserting the NNMT gene into NCI-H82 cell using a viral vector, and the NNMT protein-overexpressing NCI-H82 cell (ov-NNMT NCI-H82 cell) was obtained. The expression of DNMT1 in NCI-H82 cell was knocked down transfecting (the by shRNA nucleotide sequence of shRNA was […] TTTTTG (SEQ ID No: 2)) using a viral vector, and the NCI-H82 cell with low expression of DNMT1 protein (sh-DNMT1 NCI-H82 cell) was obtained. The control NCI-H82 cell (Con-NCI-H82 cell) was obtained by transfecting NCI-H82 cell with empty virus vector without carrying NNMT gene and shRNA. The expressing content of NNMT protein and DNMT1 protein in the Con-NCI-H82 cell, the expressing content of NNMT protein in the ov-NNMT NCI-H82 cell, and the expressing content of DNMT1 protein in the sh-DNMT1 NCI-H82 cell were detected using Western Blot assay (as shown in FIG. 15 and FIG. 16), it could be seen from FIG. 15 and FIG. 16 that the NNMT protein was overexpressed in the ov-NNMT NCI-H82 cell and the expression of DNMT1 protein was knocked down (i.e, low expression) in the sh-DNMT1 NCI-H82 cell compared with the expression level of NNMT protein and DNMT protein in the Con-NCI-H82 cell.
# [4] = tested on: 786-O (clear cell renal cell adenocarcinoma cell); assay: Cell viability assay (Promega CellTiter-Glo), inhibitory effect on 786-O; conditions: Homo sapiens, 786-0, 72 h, 3 days of culture
# Procedure: as §1, §2, §3
# Cell line 786-0 (ATCC, No. CRL-1932) was cultured in 10% fetal bovine serum-containing RPMI1640 medium (+P/S).
# [5] = tested on: NB-1 (brain neuroblastoma cell); assay: Cell viability assay (Promega CellTiter-Glo), inhibitory effect on NB-1; conditions: Homo sapiens, 72 h, 3 days of culture, read-out: inhibitory effect on brain cell line NB-1 (IC50)
# Procedure: (§6) The inhibitory effect of the compounds prepared in the Examples of the present invention on various brain tumor cell lines was detected using cell viability assay reagent.
# (§7) Cell viability was detected using the Promega CellTiter-Glo kit, cell viability was determined by directly measuring intracellular ATP content. In the experiment, the IC50 value of the compounds prepared in the Examples of the present invention on various brain tumor cell lines was detected.
# as §3
# Cell line NB-1 (ATCC, No. HTB-131) was cultured in 10% fetal bovine serum-containing Leibovitz's L-15 medium (+P/S).
# [6] = tested on: SW48 (human colon adenocarcinoma cell); assay: Cell viability assay (Promega CellTiter-Glo), inhibitory effect on SW48; conditions: 72 h, 3 days of culture
# Procedure: as §1, §2, §3
# Cell line SW48 (ATCC, No. CCL-231) was cultured in 10% fetal bovine serum-containing Leibovitz's L-15 medium (+P/S).
# [7] = tested on: Kelly (brain neuroblastoma cell); assay: Cell viability assay (Promega CellTiter-Glo), inhibitory effect on Kelly; conditions: Homo sapiens, 72 h, 3 days of culture, read-out: inhibitory effect on brain cell line Kelly (IC50)
# Procedure: as §6, §7, §3
# Cell line Kelly (ECACC, No. 92110411) was cultured in 10% fetal bovine serum and 2 mM glutamine-containing RPMI1640 medium.
# [8] = tested on: ov-NNMT NCI-H82 cell (NNMT protein-overexpressing NCI-H82); assay: Cell viability assay (Promega CellTiter-Glo), inhibitory effect on ov-NNMT NCI-H82 cell; conditions: Homo sapiens
# Procedure: as §4, §5
# [9] = tested on: GB-1 (human brain glioblastoma cell); assay: Cell viability assay (Promega CellTiter-Glo), inhibitory effect on GB-1; conditions: 72 h, 3 days of culture
# Procedure: as §1, §2, §3
# Cell line GB-1 (JCRB, No. IFO50489) was cultured in 10% fetal bovine serum-containing DMEM medium (+P/S).
# as §6, §7
# [10] = tested on: G-401 (human renal carcinoma Wilms cell); assay: Cell viability assay (Promega CellTiter-Glo), inhibitory effect on G-401; conditions: 72 h, 3 days of culture
# Procedure: as §1, §2, §3
# Cell line G-401 (ATCC, No. CRL-1441) was cultured in 10% fetal bovine serum-containing McCoy's 5a medium (+P/S).
# [11] = tested on: D341 Med (cerebellar medulloblastoma cell); assay: Cell viability assay (Promega CellTiter-Glo), inhibitory effect on D341 Med; conditions: Homo sapiens, 72 h, 3 days of culture, read-out: inhibitory effect on brain cell line D341 Med (IC50)
# Procedure: as §6, §7, §3
# Cell line D341 Med (ATCC, No. HTB-187) was cultured in 20% fetal bovine serum-containing EMEM medium (+P/S).
# [12] = tested on: SF126 (human glioblastoma multiforme cell); assay: Cell viability assay (Promega CellTiter-Glo), inhibitory effect on SF126
# Procedure: as §1, §2, §3
# Cell line SF126 (JCRB, No. IFO50286) was cultured in 10% fetal bovine serum-containing EMEM medium (+P/S).
# as §6, §7
# [13] = tested on: CFPAC-1 (human pancreatic cancer cell); assay: Cell viability assay (Promega CellTiter-Glo), inhibitory effect on CFPAC-1; conditions: 72 h, 3 days of culture
# Procedure: as §1, §2, §3
# Cell line CFPAC-1 (ATCC, No. CRL-1918) was cultured in 10% fetal bovine serum-containing IMDM medium (+P/S).
# [14] = tested on: Con-NCI-H82 cell (NCI-H82 transfected with empty virus vector); assay: Cell viability assay (Promega CellTiter-Glo), inhibitory effect on Con-NCI-H82 cell; conditions: Homo sapiens; NCI-H82 transfected with empty virus vector (control); CellTiter-Glo; read-out: inhibitory effect on Con-NCI-H82 (IC50)
# Procedure: as §4, §5
# [15] = Table 3, read-out: inhibitory effect on GB-1 (IC50)
# [16] = Table 4, read-out: inhibitory effect on brain cell line GB-1 (IC50)
# [17] = 72 h, SF-126, 3 days of culture, Table 3, read-out: inhibitory effect on SF-126 (IC50)
# [18] = SF-126, 72 h, SF126, 3 days of culture, Table 4, read-out: inhibitory effect on brain cell line SF126 (IC50)
SMILES,pIC50 [1],pIC50 [2],pIC50 [3],pIC50 [4],pIC50 [5],pIC50 [6],pIC50 [7],pIC50 [8],"pIC50 [9, 15]","pIC50 [9, 16]",pIC50 [10],pIC50 [11],"pIC50 [12, 17]","pIC50 [12, 18]",pIC50 [13],pIC50 [14]
COc1ccc2cc3[n+](cc2c1OC/C=C(\C)CCC=C(C)C)CCc1cc2c(cc1-3)OCO2 [compound AB31737],7.05,6.62,6.03,5.63,7.70,6.70,6.44,6.14,5.58,5.58,6.77,6.40,5.38,5.38,5.34,6.62
CCCCCCCCNc1c(OC)ccc2cc3[n+](cc12)CCc1cc2c(cc1-3)OCO2 [compound AB31739],6.43,6.35,5.81,5.52,7.05,6.37,6.19,6.02,5.40,5.40,6.28,6.07,5.45,5.45,5.22,6.35
COc1ccc2cc3[n+](cc2c1NCCc1ccccc1)CCc1cc2c(cc1-3)OCO2 [compound AB31740],6.70,6.31,5.80,5.29,7.10,6.47,6.08,5.81,5.11,5.11,6.03,6.28,5.11,5.11,4.91,6.31
COc1ccc2c(Cc3ccc(C(C)(C)C)cc3)c3[n+](cc2c1OC)CCc1cc2c(cc1-3)OCO2 [compound AB31748],6.49,6.49,6.04,5.41,6.68,6.38,6.34,6.11,5.49,5.49,6.49,6.17,5.45,5.45,5.31,6.49
CCCCc1c2[n+](cc3c(OC)c(OC)ccc13)CCc1cc3c(cc1-2)OCO3 [compound AB31757],6.17,6.06,5.42,4.82,6.82,6.19,5.82,5.48,4.76,4.76,6.13,5.55,4.80,4.80,4.52,6.06
CCCCCc1c2[n+](cc3c(OC)c(OC)ccc13)CCc1cc3c(cc1-2)OCO3 [compound AB31758],6.40,6.44,5.86,5.27,6.92,6.31,6.23,6.04,5.19,5.19,6.38,6.01,5.29,5.29,5.08,6.44
CCCCCCc1c2[n+](cc3c(OC)c(OC)ccc13)CCc1cc3c(cc1-2)OCO3 [compound AB31759],6.51,6.57,5.93,5.50,6.92,6.51,6.39,6.19,5.46,5.46,6.51,6.07,5.40,5.40,5.09,6.57
